Drawing on ChEMBL document CHEMBL4425093, “Picrasidine N Is a Subtype-Selective PPARβ/δ Agonist” (J Nat Prod, 2016), this text covers Activity for four molecules.

Assay [1] addresses T1, Peroxisome proliferator-activated receptor delta (Homo sapiens) (UniProt Q03181).
T1 sequence (whole entry): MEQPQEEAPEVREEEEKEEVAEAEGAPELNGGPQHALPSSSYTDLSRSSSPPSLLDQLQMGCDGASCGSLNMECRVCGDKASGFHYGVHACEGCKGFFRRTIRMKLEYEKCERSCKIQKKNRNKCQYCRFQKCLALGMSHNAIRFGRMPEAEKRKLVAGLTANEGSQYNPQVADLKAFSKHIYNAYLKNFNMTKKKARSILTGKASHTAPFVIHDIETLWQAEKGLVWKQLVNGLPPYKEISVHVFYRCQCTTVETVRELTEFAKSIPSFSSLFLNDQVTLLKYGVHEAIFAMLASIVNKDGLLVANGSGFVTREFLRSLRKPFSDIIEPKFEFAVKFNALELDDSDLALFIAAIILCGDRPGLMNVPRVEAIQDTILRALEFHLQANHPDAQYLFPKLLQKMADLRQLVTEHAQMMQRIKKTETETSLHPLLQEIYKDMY
The experiment in a line: Agonist activity at GAL4-DBD fused human PPARbeta/delta-LBD (136 to 441 residues) expressed in human HepG2 cells at 10 uM by luciferase reporter gene based mammalian one hybrid assay. Format: cell-based. Background: Reporter assays use an easily measured gene product as a stand-in for the process of interest.

Assay [2] deals with HepG2. Kind of assay: Upregulation of ANGPTL4 mRNA expression in human HepG2 cells transfected with PPARbeta/delta siRNA at 10 uM after 24 hrs by qRT-PCR method. Type of assay: functional, cell-based. In general terms: Real-time PCR tracks product formation cycle by cycle.
Assay [3] has as its system HepG2. Kind of assay: Induction of PPRE transcriptional activation in human HepG2 cells at 10 uM incubated for 24 hrs by dual luciferase reporter gene assay. Format: functional, cell-based.
Assay [4] has as its target T2, Peroxisome proliferator-activated receptor alpha (Homo sapiens) (UniProt Q07869).
T2 sequence (whole entry): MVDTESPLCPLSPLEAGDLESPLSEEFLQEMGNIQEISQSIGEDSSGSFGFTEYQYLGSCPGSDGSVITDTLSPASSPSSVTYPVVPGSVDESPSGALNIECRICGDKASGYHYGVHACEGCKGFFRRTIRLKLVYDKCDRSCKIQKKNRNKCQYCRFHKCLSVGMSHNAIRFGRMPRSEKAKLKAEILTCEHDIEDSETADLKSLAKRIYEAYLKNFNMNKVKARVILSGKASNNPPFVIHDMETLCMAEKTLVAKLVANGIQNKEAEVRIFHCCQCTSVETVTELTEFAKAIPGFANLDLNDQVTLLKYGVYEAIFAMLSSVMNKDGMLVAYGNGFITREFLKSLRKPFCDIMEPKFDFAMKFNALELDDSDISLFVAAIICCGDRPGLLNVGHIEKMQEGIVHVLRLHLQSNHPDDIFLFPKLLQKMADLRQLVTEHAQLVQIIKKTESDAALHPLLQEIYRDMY
The experiment in a line: Agonist activity at GAL4-DBD fused human PPARalpha-LBD (159 to 468 residues) expressed in human HepG2 cells at 0.1 to 20 uM after 24 hrs by dual luciferase reporter gene assay. Type of assay: cell-based.

The target in assay [5] is T1, Peroxisome proliferator-activated receptor delta (Homo sapiens). The experiment in a line: Agonist activity at PPARbeta/delta in human HepG2 cells assessed as induction of ANGPTL4 mRNA expression incubated for 24 hrs by qRT-PCR method. Type of assay: cell-based.
Assay [6] shares this target. The experiment in a line: Agonist activity at GAL4-DBD fused human PPARbeta/delta-LBD (136 to 441 residues) expressed in human HepG2 cells after 24 hrs by dual luciferase reporter gene assay. Type of assay: cell-based.
Assay [7] shares this target. The experiment in a line: Agonist activity at full length human N-terminal Myc-tagged PPARbeta/delta expressed in human HepG2 cells coexpressing RXRalpha assessed as transcriptional activation of PPRE incubated for 24 hrs by dual luciferase reporter gene assay. Format: cell-based.
The target in assay [8] is T3, Peroxisome proliferator-activated receptor gamma (Homo sapiens) (UniProt P37231).
T3 sequence (whole entry): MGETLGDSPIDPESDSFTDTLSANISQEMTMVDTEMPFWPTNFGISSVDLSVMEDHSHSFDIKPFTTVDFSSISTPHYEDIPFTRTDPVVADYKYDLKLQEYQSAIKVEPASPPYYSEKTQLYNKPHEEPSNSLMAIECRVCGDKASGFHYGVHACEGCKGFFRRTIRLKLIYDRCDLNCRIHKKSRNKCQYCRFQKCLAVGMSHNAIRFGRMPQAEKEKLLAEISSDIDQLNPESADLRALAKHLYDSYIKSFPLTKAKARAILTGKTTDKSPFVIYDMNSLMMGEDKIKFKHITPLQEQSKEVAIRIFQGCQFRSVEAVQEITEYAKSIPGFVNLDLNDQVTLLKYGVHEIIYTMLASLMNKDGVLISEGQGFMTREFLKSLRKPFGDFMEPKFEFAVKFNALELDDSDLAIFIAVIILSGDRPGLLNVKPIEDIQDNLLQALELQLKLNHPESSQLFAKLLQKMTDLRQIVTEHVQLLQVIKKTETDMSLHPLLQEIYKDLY
Kind of assay: Agonist activity at GAL4-DBD fused human PPARgamma-LBD (157 to 475 residues) expressed in human HepG2 cells at 0.1 to 20 uM after 24 hrs by dual luciferase reporter gene assay. Format: cell-based.

Assay [9] deals with T1, Peroxisome proliferator-activated receptor delta (Homo sapiens). Kind of assay: Agonist activity PPARbeta/delta in human PC3 cells assessed as induction of ANGPTL4 mRNA expression at 10 uM incubated for 24 hrs by qRT-PCR method. Format: cell-based.
For assay [10] the target is unchanged. The experiment in a line: Agonist activity PPARbeta/delta in human MCF7 cells assessed as induction of ANGPTL4 mRNA expression at 10 uM incubated for 24 hrs by qRT-PCR method. Format: cell-based.

Each structure is given as a SMILES string. Calls of active or inactive are those of the source. The rule behind the calls is not given here.

As for `COc1cccc2c1[nH]c1c(CCn3ccc4c5n(c(=O)c(=O)cc3-5)c3ccccc43)ncc(OC)c12`, the result in assay [1] was inactive.

Regarding `Cc1cc(SCc2sc(-c3ccc(C(F)(F)F)c(F)c3)nc2C)ccc1OCC(=O)O`, the outcome in assay [2] was inactive. The result in [3] was Active.

Regarding `CCCCn1ccc2c3n(c(=O)c(=O)cc1-3)c1ccccc21`, the result in assay [1] was inactive.

Regarding `COc1cnc(CCn2ccc3c4n(c(=O)c(=O)cc2-4)c2ccccc32)c2c1c1ccccc1n2OC`, the outcome in [2], in assay [4] and in assay [9] was inactive. For the same molecule, the Activity result in assay [5], in assay [6] and in assay [7] was “Dose-dependent effect” each time. The outcome in [3], in [8] and in assay [10] was Active.
